Reference: patent US20230382926A1, “COMPOUNDS AND USES THEREOF” (The University of The West Indies, priority 2022, published 2023)

Legend:
Test in all cases: Rescue concentration, modified checkerboard MIC adjuvant assay
Type in all cases: cell-based
[1] = system: Escherichia coli ATCC 35150; conditions: E. coli ATCC 35150
Procedure: (§1) Reference microorganisms as well as clinical strains used to evaluate the antimicrobial adjuvant properties of SP-6azaBIM 125 and SP-6azaBIM 136 are listed in Table 3. Clinical strains of bacteria were kindly provided by the Faculty of Medical Sciences, UWI, St. Augustine, Trinidad. All bacterial cultures were cryopreserved in 30% glycerol/Brain Heart Infusion (BHI) at −80° C. Cultures were revived on BHI agar (Oxoid Ltd, England) and maintained at 4° C. until needed.
(§2) Prior to each experiment, cultures were streaked onto clean BHI agar plates and incubated at 35° C. for 24 hours. Colonies of the respective cultures were selected and inoculated in phosphate buffer saline (pH 7.5) to a 0.5 McFarland turbidity standard (equivalent to 10^8 CFU mL^−1). For inhibitory studies the bacterial suspensions were diluted 1:100 in cation-adjusted Mueller Hinton Broth (ca-MHB) (Oxoid Ltd, England). Fastidious bacteria including Streptococcus pneumoniae, Haemophilus infuenzae and Clostridium difficile were maintained on BHI agar with 5% defibrinated sheep blood and diluted in ca-MHB with 5% defibrinated sheep blood.
(§3) Antibiotic powders used in this study were purchased from Sigma Aldrich Ltd. (WI, USA). Antibiotic stock solutions were made at 50 mg mL^−1 according to Andrews (2001) and working solutions were prepared 24 h before use and stored at 4° C.
(§4) HCl salts of the of the SP-azaBIM test compounds were prepared prior to testing and stored at 4° C. Working preparations of each compound were made to 1 mg/mL in sterile deionised water.
(§5) The antibiotic adjuvant activity of the SPazaBIMs were evaluated in combination with representative antibiotics (representing 13 antibiotic classes) against the 19 pathogens strains listed in Table 3. To assess the adjuvant properties of the SP-azaBIM molecules, a modified checkerboard minimum inhibitory concentration assay was used. A fixed concentration of the respective antibiotic (susceptible breakpoint concentration) was mixed with a twofold dilution series of the test SP-azaBIM (FIG. 1). This was to determine the concentration of SP-azaBIM needed potentiate the antibiotic at a clinically susceptible breakpoint concentration. Antibiotic susceptible breakpoint concentrations for the respective bacteria were determined using Clinical Laboratory Standards Institute (CLSI) criteria M100 ED31.
(§6) In this study, only those antibiotics to which the bacterial was classed as resistant were included in the adjuvant assays. In this assay we recorded the rescue concentration of the SP-BIM for a respective antibiotic. The rescue concentration was defined as the concentration of the adjuvant that reduces the minimum inhibitory concentration (MIC) of an antibiotic to the susceptibility breakpoint.
(§7) Immediately prior to testing, the respective antibiotic and SP-azaBIM was dissolved in sterile deionised water at 20× the required test concentration. Each microtiter well was then inoculated with 180 μl of bacterial inoculum of 10^6 CFU/ml in ca-MHB, and 10 μl each if the antibiotic and SP-azaBIM was added to the plates. These plates were then incubated at 35° C. for 24 h under aerobic conditions. A similar method was followed for the fastidious pathogens except that they were cultured in ca-MHB with 5% sheep blood and 5% CO2.
(§8) Bacterial growth was visually inspected after the incubation period and the rescue concentration of the test SP-azaBIM was determined as the lowest concentration of the compound needed to reduce bacterial growth by 99.99% at the susceptible breakpoint concentration of the antibiotic. For example, CLSI states that Pseudomonas aeruginosa is susceptible to the Imipenem if the MIC is ≤2 μg mL^−1. If the bacteria can tolerate this concentration in vitro, then the bacteria has an intermediate or absolute resistance toward that antibiotic. […]

[2] = system: Pseudomonas aeruginosa MDR 5805; conditions: P. aeruginosa MDR 5805
Procedure: as §1, §2, §3, §4, §5, §6, §7, §8

[3] = system: Streptococcus pneumoniae ATCC 49619; conditions: S. pneumoniae ATCC 49619
Procedure: as §1, §2, §3, §4, §5, §6, §7, §8

[4] = system: Stenotrophomonas maltophilia MDR 7785; conditions: S. maltophilia MDR 7785
Procedure: as §1, §2, §3, §4, §5, §6, §7, §8

[5] = system: Klebsiella pneumoniae ATCC BAA-2814; conditions: K. pneumoniae ATCC BAA-2814
Procedure: as §1, §2, §3, §4, §5, §6, §7, §8

[6] = system: Enterococcus faecalis ATCC 51299; conditions: E. faecalis ATCC 51299
Procedure: as §1, §2, §3, §4, §5, §6, §7, §8

[7] = system: Acinetobacter baumannii clinical isolate 9978; conditions: A. baumannii clinical isolate 9978
Procedure: as §1, §2, §3, §4, §5, §6, §7, §8

[8] = system: Klebsiella pneumoniae ATCC 49472; conditions: K. pneumoniae ATCC 49472
Procedure: as §1, §2, §3, §4, §5, §6, §7, §8

[9] = Amp at susceptible breakpoint 8 μg mL^−1
[10] = Col at susceptible breakpoint 8 μg mL^−1
[11] = Dox at susceptible breakpoint 4 μg mL^−1
[12] = Gen at susceptible breakpoint 4 μg mL^−1
[13] = Imi at susceptible breakpoint 1 μg mL^−1
[14] = Amox at susceptible breakpoint 8 μg mL^−1
[15] = Col at susceptible breakpoint 2 μg mL^−1
[16] = Imi at susceptible breakpoint 2 μg mL^−1
[17] = Mero at susceptible breakpoint 2 μg mL^−1
[18] = Pol B at susceptible breakpoint 2 μg mL^−1
[19] = Cef at susceptible breakpoint 8 μg mL^−1
[20] = Ceph at susceptible breakpoint 8 μg mL^−1
[21] = Chl at susceptible breakpoint 8 μg mL^−1

## Brc1ccc(C(c2c[nH]c3ncccc23)c2c[nH]c3ncccc23)cc1 [SP-7azaBIM 126, 3,3′-((4-bromophenyl)methylene)bis(1H-pyrrolo[2,3-b]pyridine)]
[1]; [9]
  Rescue concentration, Amp (8): >128 µg/mL
[1]; Cip at susceptible breakpoint 0.25 μg mL^−1
  Rescue concentration, Cip (0.25): >128 µg/mL
[1]; [10]
  Rescue concentration, Col (8): >128 µg/mL
[1]; [11]
  Rescue concentration, Dox (4): >128 µg/mL
[1]; [12]
  Rescue concentration, Gen (4): >128 µg/mL
[1]; [13]
  Rescue concentration, Imi (1): >128 µg/mL
[2]; [14]
  Rescue concentration, Amox (8): >128 µg/mL
[2]; [15]
  Rescue concentration, Col (2): >128 µg/mL
[2]; [12]
  Rescue concentration, Gen (4): >128 µg/mL
[2]; [16]
  Rescue concentration, Imi (2): >128 µg/mL
[2]; [17]
  Rescue concentration, Mero (2): >128 µg/mL
[2]; [18]
  Rescue concentration, Pol B (2): >128 µg/mL
[3]; Amox at susceptible breakpoint 2 μg mL^−1
  Rescue concentration, Amox (2): >128 µg/mL
[3]; Ery at susceptible breakpoint 0.25 μg mL^−1
  Rescue concentration, Ery (0.25): >128 µg/mL
[3]; Imi at susceptible breakpoint 0.12 μg mL^−1
  Rescue concentration, Imi (0.12): >128 µg/mL
[4]; [19]
  Rescue concentration, Cef (8): >128 µg/mL
[4]; [20]
  Rescue concentration, Ceph (8): >128 µg/mL
[4]; [21]
  Rescue concentration, Chl (8): >128 µg/mL
[4]; Cip at susceptible breakpoint 2 μg mL^−1
  Rescue concentration, Cip (2): >128 µg/mL
[4]; [12]
  Rescue concentration, Gen (4): >128 µg/mL
[4]; [16]
  Rescue concentration, Imi (2): 16 µg/mL
[4]; [17]
  Rescue concentration, Mero (2): 32 µg/mL
[4]; Tri at susceptible breakpoint 2 μg mL^−1
  Rescue concentration, Tri (2): >128 µg/mL
[5]; [14]
  Rescue concentration, Amox (8): >128 µg/mL
[5]; [9]
  Rescue concentration, Amp (8): >128 µg/mL
[5]; Aze at susceptible breakpoint 4 μg mL^−1
  Rescue concentration, Aze (4): >128 µg/mL
[5]; Azi at susceptible breakpoint 16 μg mL^−1
  Rescue concentration, Azi (16): >128 µg/mL
[5]; Cef at susceptible breakpoint 16 μg mL^−1
  Rescue concentration, Cef (16): >128 µg/mL
[5]; [20]
  Rescue concentration, Ceph (8): >128 µg/mL
[5]; [21]
  Rescue concentration, Chl (8): >128 µg/mL
[5]; [10]
  Rescue concentration, Col (8): >128 µg/mL
[5]; [11]
  Rescue concentration, Dox (4): >128 µg/mL
[5]; [12]
  Rescue concentration, Gen (4): >128 µg/mL
[5]; [13]
  Rescue concentration, Imi (1): >128 µg/mL
[5]; Tet at susceptible breakpoint 4 μg mL^−1
  Rescue concentration, Tet (4): >128 µg/mL
[6]; [9]
  Rescue concentration, Amp (8): 32 µg/mL
[6]; [21]
  Rescue concentration, Chl (8): >128 µg/mL
[6]; [11]
  Rescue concentration, Dox (4): >128 µg/mL
[6]; Ery at susceptible breakpoint 0.5 μg mL^−1
  Rescue concentration, Ery (0.5): >128 µg/mL
[6]; Tri at susceptible breakpoint 8 μg mL^−1
  Rescue concentration, Tri (8): >128 µg/mL
[6]; Van at susceptible breakpoint 4 μg mL^−1
  Rescue concentration, Van (4): 64 µg/mL
[7]; [14]
  Rescue concentration, Amox (8): >128 µg/mL
[7]; [19]
  Rescue concentration, Cef (8): >128 µg/mL
[7]; [15]
  Rescue concentration, Col (2): >128 µg/mL
[7]; [12]
  Rescue concentration, Gen (4): >128 µg/mL
[7]; [16]
  Rescue concentration, Imi (2): >128 µg/mL
[7]; [17]
  Rescue concentration, Mero (2): >128 µg/mL
[7]; [18]
  Rescue concentration, Pol B (2): >128 µg/mL
[8]; [14]
  Rescue concentration, Amox (8): >128 µg/mL
[8]; [9]
  Rescue concentration, Amp (8): >128 µg/mL
[8]; [10]
  Rescue concentration, Col (8): >128 µg/mL
[8]; [13]
  Rescue concentration, Imi (1): >128 µg/mL
[8]; Mero at susceptible breakpoint 1 μg mL^−1
  Rescue concentration, Mero (1): >128 µg/mL
[8]; Pol B at susceptible breakpoint 8 μg mL^−1
  Rescue concentration, Pol B (8): >128 µg/mL
